Assay results taken from patent US20110053900A1, “PROGESTERONE ANTAGONISTS SUCH AS CDB-4124 IN THE TREATMENT OF BREAST CANCER” (Repros Therapeutics inc, priority 2008, published 2011).

Assays:
[1] = biological target: T1, glucocorticoid receptor (Homo sapiens, UniProt P04150); conditions: compared with parent CDB-4124; cited from earlier work
T1 sequence (P04150 1-777): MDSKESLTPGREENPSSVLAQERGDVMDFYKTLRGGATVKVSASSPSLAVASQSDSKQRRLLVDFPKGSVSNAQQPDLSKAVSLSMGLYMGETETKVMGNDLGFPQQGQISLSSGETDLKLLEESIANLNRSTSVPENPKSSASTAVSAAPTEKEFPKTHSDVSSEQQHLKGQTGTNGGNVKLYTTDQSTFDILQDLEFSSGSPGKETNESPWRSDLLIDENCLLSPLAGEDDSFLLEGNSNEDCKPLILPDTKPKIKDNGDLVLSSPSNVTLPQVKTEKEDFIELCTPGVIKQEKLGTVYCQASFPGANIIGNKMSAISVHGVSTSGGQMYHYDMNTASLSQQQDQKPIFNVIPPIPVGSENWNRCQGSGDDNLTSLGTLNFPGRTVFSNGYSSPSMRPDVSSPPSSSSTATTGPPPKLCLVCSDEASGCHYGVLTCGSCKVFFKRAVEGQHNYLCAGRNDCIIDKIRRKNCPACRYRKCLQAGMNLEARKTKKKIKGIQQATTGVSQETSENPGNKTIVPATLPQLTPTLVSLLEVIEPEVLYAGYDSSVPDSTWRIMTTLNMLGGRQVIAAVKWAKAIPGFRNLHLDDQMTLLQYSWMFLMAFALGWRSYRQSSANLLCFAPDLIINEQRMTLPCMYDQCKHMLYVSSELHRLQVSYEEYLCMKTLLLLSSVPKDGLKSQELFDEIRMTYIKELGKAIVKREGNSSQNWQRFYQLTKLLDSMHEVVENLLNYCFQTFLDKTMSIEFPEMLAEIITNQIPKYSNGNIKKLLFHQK

[2] = Serum cortisol by ELISA; assay type: in vivo, rat; conditions: 10 mg/kg, 21 days of dosing
Description: (§1) The animals were assessed three times for their levels of progesterone: initially, when they were about to go on treatment; a second time after 21 days of treatment; and finally after treatment at sacrifice which was 2-4 days after the last s.c. injection. All blood samples were taken by heart puncture; serum was prepared and held frozen at −40° C. The levels of the steroid hormones progesterone, cortisol, and corticosterone were determined by ELISA.
(§2) The concentrations of steroid hormones were determined three times during the study: before the beginning of treatments, after 21 days of treatment and finally after treatment at sacrifice which was 2-4 days after the last s.c. injection. All samples were taken by heart puncture. Serum was obtained and held frozen at −40° C. The levels of steroid hormones were determined by ELISA.

[3] = biological target: T2, glucocorticoid receptor (rbGR) (Oryctolagus cuniculus, UniProt P59667); assay: Glucocorticoid receptor binding; set-up: species or system rabbit
T2 construct: cytosol containing PR or GR were prepared in TEGMD buffer; from tissue; host or cells: thymus of estradiol-primed immature rabbits (cytosol)
T2 sequence (P59667 1-772): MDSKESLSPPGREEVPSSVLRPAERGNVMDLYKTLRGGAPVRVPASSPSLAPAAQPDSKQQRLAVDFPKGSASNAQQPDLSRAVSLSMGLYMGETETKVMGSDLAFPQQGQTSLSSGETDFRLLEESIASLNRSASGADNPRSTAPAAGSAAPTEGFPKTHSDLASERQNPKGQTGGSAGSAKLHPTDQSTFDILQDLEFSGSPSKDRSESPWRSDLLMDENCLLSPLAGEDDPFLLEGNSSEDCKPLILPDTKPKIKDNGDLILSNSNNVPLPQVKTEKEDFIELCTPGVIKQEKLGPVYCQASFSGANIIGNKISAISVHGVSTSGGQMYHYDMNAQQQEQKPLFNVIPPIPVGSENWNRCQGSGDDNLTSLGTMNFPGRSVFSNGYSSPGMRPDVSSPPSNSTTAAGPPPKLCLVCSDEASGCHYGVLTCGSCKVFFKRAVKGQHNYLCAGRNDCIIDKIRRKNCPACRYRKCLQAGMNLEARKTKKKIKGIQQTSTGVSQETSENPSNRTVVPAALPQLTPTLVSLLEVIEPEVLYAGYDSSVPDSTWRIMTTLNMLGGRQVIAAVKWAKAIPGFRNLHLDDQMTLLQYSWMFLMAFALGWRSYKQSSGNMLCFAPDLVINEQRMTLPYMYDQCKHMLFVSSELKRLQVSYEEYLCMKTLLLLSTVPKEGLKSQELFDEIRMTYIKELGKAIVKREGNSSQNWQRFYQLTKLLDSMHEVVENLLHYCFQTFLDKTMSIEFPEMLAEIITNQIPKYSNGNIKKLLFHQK
Description: Certain antiprogestins were tested in receptor-binding assays for their ability to bind rabbit progesterone receptor (rbPR) and glucocorticoid receptor (rbGR). […] For PR binding, the cytosol was incubated with 6 nM 1,2-[^3H]progesterone (50.0 Ci/mmole) and competitors were added at concentrations from 2 to 100 nM. For binding to GR, the cytosol was incubated with 6 nM 6,7-[^3H]-dexamethasone (40 Ci/mmol) and test compounds were added at concentrations from 20 to 100 nM. After overnight incubation at 4° C., bound and unbound [^3H] steroids were separated by addition of dextran-coated charcoal and centrifugation at 2100×g for 15 min at 4
C. Supernatants containing the [3H]-steroid receptor complexes were decanted into vials containing 4 ml Optifluor (Packard Instrument Co.), vortexed, equilibrated in a liquid scintillation counter for 30 minutes and then counted for 2 minutes. […] The standards for the PR and GR assays were unlabeled progesterone and dexamethasone, respectively.

[4] = Serum progesterone by ELISA; assay type: in vivo, rat
Description: as §1, §2

[5] = Estrogenic, androgenic, anti-estrogenic and anti-androgenic activities
[6] = Estrogen levels in human females during administration; assay type: in vivo; conditions: administration periods of at least six months
[7] = test system: rabbit uterus; assay: Anti-McGinty and anti-Clauberg assays; assay type: in vivo; conditions: in comparison to RU 486 and CDB-2914
Excerpt: Also given in the Table are the relative biological activities of the same compounds in the rabbit uterus by the anti-McGinty and anti-Clauberg assays. Compound CDB-2914 (listed at the end of the Table) was used as the control or reference compound (rabbit Biological Activity=1.00) for these experiments because results of experiments using CDB-2914 have been published before (Hild-Petito et al., 1996; Passaro et al., 1997; Reel et al., 1998; Lamer et al., 2000). For the anti-McGinty test, immature female rabbits received a subcutaneous injection of 5 μg estradiol in 10% ethanol/sesame oil daily for 6 consecutive days. On day 7, animals underwent sterile abdominal surgery to ligate a 3-4 cm segment of both uterine horns. The test compound in appropriate solvent was injected intraluminally into the ligated segment of one uterine horn and vehicle alone into the other. A stimulating dose of progesterone (267 μg/day) was administered subcutaneously to each rabbit daily for the next three days to induce endometrial proliferation. All animals were sacrificed at day 10 for removal of the uterus where a segment central to the ligatures was removed and fixed in 10% neutral buffered formalin and submitted for histological processing. Five micron sections stained with hematoxylin and cosin were evaluated microscopically for the degree of endometrial glandular proliferation. The percent inhibition of endometrial proliferation for each rabbit was calculated and the mean of the group of five animals recorded. For the Anti-Clauberg test, immature female rabbits received a subcutaneous injection of 5 μg estradiol in 10% ethanol/sesame oil daily for 6 consecutive days. On day 7, animals received progesterone by subcutaneous injection (160 μg/day) and the experimental compound in appropriate vehicle orally or subcutaneously for five consecutive days. One group of rabbits received progesterone only. Twenty-four hours after the last dose, all animals were sacrificed for removal of the uterus which was cleaned of all fat and connective tissue, weighed to the nearest 0.2 mg and placed in 10% neutral buffered formalin for subsequent histological processing. Five micron sections stained with hematoxylin and eosin were evaluated microscopically for the degree of endometrial glandular proliferation. The percent inhibition of endometrial proliferation at each dose level of the test compound was derived by comparison with progesterone-stimulated animals alone. The data presented in Table 1 (rabbit Biol. Act.) reflects the average of the results obtained for each compound by the anti-McGinty and anti-Clauberg assays relative to CDB-2914.

[8] = test system: rabbit progesterone receptor (rbPR) and glucocorticoid receptor (rbGR); assay: Receptor-binding assays, ratio of relative binding affinities rbPR/rbGR; conditions: RBA = EC50 of standard/EC50 of test compound x 100
Description: Certain antiprogestins were tested in receptor-binding assays for their ability to bind rabbit progesterone receptor (rbPR) and glucocorticoid receptor (rbGR). Briefly, cytosol containing PR or GR were prepared in TEGMD buffer (10 mM Tris, pH 7.2, 1.5 mM EDTA, 0.2 mM sodium molybdate, 10% glycerol, 1 mM DTT) from uterus or thymus, respectively, of estradiol-primed immature rabbits. For PR binding, the cytosol was incubated with 6 nM 1,2-[^3H]progesterone (50.0 Ci/mmole) and competitors were added at concentrations from 2 to 100 nM. For binding to GR, the cytosol was incubated with 6 nM 6,7-[^3H]-dexamethasone (40 Ci/mmol) and test compounds were added at concentrations from 20 to 100 nM. After overnight incubation at 4° C., bound and unbound [^3H] steroids were separated by addition of dextran-coated charcoal and centrifugation at 2100×g for 15 min at 4
C. Supernatants containing the [3H]-steroid receptor complexes were decanted into vials containing 4 ml Optifluor (Packard Instrument Co.), vortexed, equilibrated in a liquid scintillation counter for 30 minutes and then counted for 2 minutes. The ECso (Effective Concentration) for each standard curve and each of the compound curves was determined by entering the counting data into a four parameter sigmoidal computer program (RiaSmart® Immunoassay Data Reduction Program, Packard Instrument Co., Meriden, Conn.). Relative binding affinity (RBA) for each compound was calculated using the following equation: EC50 of standard/EC50 of test compound×100. The standards for the PR and GR assays were unlabeled progesterone and dexamethasone, respectively. The results of these experiments are summarized in Table 1, as a ratio of the relative binding affinities of each compound for the rbPR and rbGR receptors (rbPR/rbGR).

Row | Compound | anti-glucocorticoid activity (in words) [1] | serum cortisol versus control group (in words) [2] | anti-glucocorticoid receptor activity / glucocorticoid receptor binding (in words) [3] | serum progesterone versus before treatment (in words) ([4]; 10 mg/kg) | Serum Progesterone, Before TX (mean) ([4]; 10 mg/kg group, before treatment) | Serum Progesterone, During TX (mean) ([4]; 10 mg/kg, after 21 days of treatment) | Serum Progesterone, After TX (mean) ([4]; 10 mg/kg, at sacrifice 2-4 days after the last s.c. injection) | estrogenic, androgenic, anti-estrogenic, and anti-androgenic activities (in words) [5] | estrogen levels in human females (in words) [6] | antiprogestin activity in the rabbit uterus (in words) [7] | rbPR/rbGR (ratio of the relative binding affinities for rbPR and rbGR) [8]
1 | CNc1ccc([C@H]2C[C@@]3(C)[C@@H](CC[C@]3(OC(C)=O)C(=O)COC)[C@@H]3CCC4=CC(=O)CCC4=C32)cc1 [CDB-4453, 21-methoxy-17α-acetoxy-11β-(4-N-methylaminophenyl)-19-norpregna-4,9-diene-3,20-dione] | even lower anti-glucocorticoid activity than its parent |  |  |  |  |  |  |  |  |  | 
2 | CC(=O)OCC(=O)[C@@]1(OC(C)=O)CCC2C3CCC4=CC(=O)CCC4=C3C(c3ccc(N(C)C)cc3)C[C@@]21C (stereo partly drawn) [CDB-4059, 21-acetoxy-17α-acetoxy-11β-(4 N,N-dimethylaminophenyl)-19-norpregna-4,9-diene-3,20-dione] |  | significantly higher levels of serum cortisol | minimal anti-glucocorticoid receptor activity | did not raise serum progesterone levels | 57 ng/mL | 58 ng/mL | 47 ng/mL | lack estrogenic, androgenic, anti-estrogenic, and anti-androgenic activities | maintain estrogen levels in the normal range | strong antiprogestin activity | 1.89
